The target of one assay is T1, Hyg17 (Streptomyces leeuwenhoekii, UniProt A0A0F7VN41).
T1 construct: cloned NdeI/XhoI in pTip-QC1, expressed in Rhodococcus jostii RHA1, Ni-NTA and size exclusion; primers encode N-terminus MTVAVVG and C-terminus SVPVAP before LE (XhoI)
Description: NADH formation, absorbance at […] nm, initial rates […]-5 min. Format: biochemical. The settings on record: 100 mM CAPS, 50 mM NaCl, pH 10.5, 25 °C.

The next assay concerns the target T2, BsIDH (Bacillus subtilis, UniProt P26935).
T2 construct: gene iolG; codon-optimised synthetic gene in pET28a, expressed in E. coli BL21 star (DE3), Ni-NTA and size exclusion
Description: thin-layer chromatography of ketone product. The settings on record: 10 mM myo-inositol, 10 mM NAD+, 100 mM CAPS, 50 mM NaCl, pH 10.5. Format: biochemical.

T1 sequence (A0A0F7VN41 whole entry): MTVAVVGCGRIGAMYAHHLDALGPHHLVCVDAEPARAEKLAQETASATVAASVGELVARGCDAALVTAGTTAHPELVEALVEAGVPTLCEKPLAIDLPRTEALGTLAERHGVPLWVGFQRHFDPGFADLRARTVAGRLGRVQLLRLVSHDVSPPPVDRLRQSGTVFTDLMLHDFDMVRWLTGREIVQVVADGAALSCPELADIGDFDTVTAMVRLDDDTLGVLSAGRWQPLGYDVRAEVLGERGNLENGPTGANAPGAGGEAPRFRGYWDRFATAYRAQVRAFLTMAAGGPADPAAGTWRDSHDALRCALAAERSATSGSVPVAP
T2 sequence (P26935 whole entry): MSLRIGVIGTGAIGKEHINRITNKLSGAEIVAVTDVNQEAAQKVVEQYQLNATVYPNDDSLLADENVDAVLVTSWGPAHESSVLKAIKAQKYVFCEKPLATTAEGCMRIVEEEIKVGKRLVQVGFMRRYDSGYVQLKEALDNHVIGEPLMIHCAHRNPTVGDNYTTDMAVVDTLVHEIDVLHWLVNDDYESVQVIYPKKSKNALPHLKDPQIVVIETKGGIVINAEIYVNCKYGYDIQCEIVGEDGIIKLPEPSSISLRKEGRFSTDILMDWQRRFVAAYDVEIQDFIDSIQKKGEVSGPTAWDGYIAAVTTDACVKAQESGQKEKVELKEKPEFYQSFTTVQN

For `NC(=O)c1ccc[n+]([C@@H]2O[C@H](COP(=O)(O)OP(=O)(O)OC[C@H]3O[C@@H](n4cnc5c(N)ncnc54)[C@H](O)[C@@H]3O)[C@@H](O)[C@H]2O)c1` [NAD^+], the Km on Hyg17 (10 mM myo-inositol) is 4.2 ± 0.49 mM.

`O[C@H]1[C@H](O)[C@@H](O)[C@H](O)[C@@H](O)[C@H]1O` [myo-inositol]: the “thin-layer chromatography of ketone product” value at BsIDH was “We found that both enzymes generated a ketone product with identical retention factors”. Besides, the Km on Hyg17 (10 mM NAD+) is 9 ± 1.1 mM.

`O[C@H]1[C@H](O)[C@@H](O)[C@H](O)[C@@H](O)[C@@H]1O` [scyllo-inositol]: the Km at Hyg17 (10 mM NAD+) is 20.3 ± 3.3 mM.

The values are drawn from publication PMC10949010, “A myo-inositol dehydrogenase involved in aminocyclitol biosynthesis of hygromycin A” (Beilstein Journal of Organic Chemistry, 2024).
